# Data taken from patent US8658353B2, “Liver cell toxicity assay” (Corning Incorporated, priority 2008, dated 2014).
# Columns and labels:
# primary liver cells [1] = test: Label-free biosensor DMR assay, 1 mM H2O2 as amplifying marker after compound pretreatment of primary liver cells; details: then 1 mM H2O2
# primary liver cells [2] = test: Label-free biosensor DMR assay, direct exposure of primary liver cells in biosensor sandwich culture; format: cell-based, Human; details: for DMR signal upon exposure to compound alone: all doses examined
# Description: Collagen coating of the biosensor microplates was achieved by dispensing 10 μl collagen I (10 μg/ml) into each well, and followed by slow drying over night under controlled vacuum condition. This coating process takes advantage of slow self-assembly of collagen I, and results in an un-even coating consisting of a series of clusters of collagen I, thus providing microscale or nanoscale topology of ECM materials to liver cells to form Epic® 384well biosensor microplate collagen coated.
# The RWG biosensor exploits its evanescent wave to measure ligand-induced DMR signals in cells. The evanescent wave extends into the cells and exponentially decays over distance, leading to a characteristic sensing volume of ˜150 nm, implying that any optical response mediated through the receptor activation only represents an average over the portion of the cell that the evanescent wave is sampling. The aggregation of many cellular events downstream the receptor activation determines the kinetics and amplitudes of a ligand-induced DMR.
# (§1) The cell responses were recorded continuously.
# [3] = test system: human lung cancer cell line A549; test: Label-free biosensor DMR assay of A549 cells exposed to 2 mM H2O2 with or without thrombin pretreatment; format: cell-based
# Description: The kinetic responses were normalized at the time point 2 min before the addition of H2O2.
# as §1
# The large amplitude of the second N-DMR signal indicates the significant loss of local biomass density within the detection zone of the biosensor, indicative of cell apoptosis which leads to the release of cellular matters from the bottom portion of cells cultured on the biosensor surface. […] The onset time for the second N-DMR event is delayed by at least 15 min.
compound,measurement,setting,value
"CO[C@H]1/C=C/O[C@@]2(C)Oc3c(C)c(O)c4c(O)c(c(/C=N/N5CCN(C)CC5)c(O)c4c3C2=O)NC(=O)/C(C)=C\C=C\[C@H](C)[C@H](O)[C@@H](C)[C@@H](O)[C@@H](C)[C@H](OC(C)=O)[C@@H]1C [rifampin, Rifampin]",H2O2-induced DMR signal after pretreatment,primary liver cells [1]; rifampin pretreatment ~1-4 hrs,rifampin dose dependent N-DMR
same,DMR signal upon exposure to compound alone,primary liver cells [2]; rifampin 625 nM up to 40000 nM,did not result in any significant loss in local biomass density or cause any significant DMR signal
"OO [H2O2, hydrogen peroxide]",DMR signal of A549 cells,"[3]; 2 mM H2O2, no thrombin pretreatment","complicated DMR signal, consisting of four phases"
same,DMR response (change in local biomass),primary liver cells [2]; 1 mM H2O2,did not trigger any significant change in local biomass
same,DMR response,primary liver cells [2]; 5 mM H2O2,significant negative DMR (N-DMR) signal
same,onset time for the N-DMR signal,primary liver cells [2]; after treatment with 5 mM H2O2,around 30 min
thrombin,delay of onset time for the second N-DMR event,"[3]; thrombin pretreatment 1 to 16 unit/ml, then 2 mM H2O2",at least 15 min
same,"potency to alter the H2O2 response, based on amplitudes of the rapid P-DMR event","[3]; thrombin pretreatment 1 hr, then 2 mM H2O2, said to correspond to EC50 for endogenous PAR1 activation",~4 unit/ml
same,effect on H2O2-induced A549 apoptosis,"[3]; thrombin pretreatment, then 2 mM H2O2",protective of H2O2-induced A549 apoptosis
C[S+]([O-])c1ccc(-c2nc(-c3ccncc3)c(-c3ccc(F)cc3)[nH]2)cc1 (centres unmarked) [SB203580],H2O2-induced DMR signal after pretreatment,"primary liver cells [1]; high doses of SB203580, pretreatment ~1-4 hrs",responded to 1 mM H2O2 exposure with a N-DMR
same,DMR signal upon exposure to compound alone,primary liver cells [2]; 625 nanomolar up to 10000 nanomolar,did not result in any significant DMR signal
